The term pest or weed control denotes how far the test organism was held down. High values mean strong suppression, low ones weak suppression.

Holding throughout (assay type): in vivo
The test system of one assay is Alternaria solani. The assay can be described thus: Test B: preventive spray on tomato seedlings, tomato early blight, visual disease rating. The note with it: 200 ppm test suspension. The method, then:
General protocol for preparing test suspensions for Tests A-I: the test compounds were first dissolved in acetone in an amount equal to 3% of the final volume and then suspended at the desired concentration (in ppm) in acetone and purified water (50/50 mix by volume) containing 250 ppm of the surfactant Trem® 014 (polyhydric alcohol esters). The resulting test suspensions were then used in Tests A-I. Each test was conducted in triplicate, and the results were averaged. Spraying a 200 ppm test suspension to the point of run-off on the test plants was the equivalent of a rate of about 800 g/ha. Unless otherwise indicated, the rating values indicate a 200 ppm test suspension was used. (An asterisk “*” next to the rating value indicates a 40 ppm test suspension was used.) The test suspension was sprayed to the point of run-off on tomato seedlings. The following day the seedlings were inoculated with a spore suspension of Alternaria solani (the causal agent of tomato early blight) and incubated in a saturated atmosphere at 27° C. for 48 h, and then moved to a growth chamber at 20° C. for 5 days, after which time visual disease ratings were made. Results for Tests A-I are given in Table A. In the Table, a rating of 100 indicates 100% disease control and a rating of 0 indicates no disease control (relative to the controls). A hyphen (-) indicates no test results.

Assay [1] concerns Blumeria graminis f. sp. tritici. The assay can be described thus: Test I: preventive spray on wheat seedlings, wheat powdery mildew, visual disease rating. The note with it: 192 h, 200 ppm test suspension. How it is done: General protocol for preparing test suspensions for Tests A-I: the test compounds were first dissolved in acetone in an amount equal to 3% of the final volume and then suspended at the desired concentration (in ppm) in acetone and purified water (50/50 mix by volume) containing 250 ppm of the surfactant Trem® 014 (polyhydric alcohol esters). The resulting test suspensions were then used in Tests A-I. Each test was conducted in triplicate, and the results were averaged. Spraying a 200 ppm test suspension to the point of run-off on the test plants was the equivalent of a rate of about 800 g/ha. Unless otherwise indicated, the rating values indicate a 200 ppm test suspension was used. (An asterisk “*” next to the rating value indicates a 40 ppm test suspension was used.) The test suspension was sprayed to the point of run-off on wheat seedlings. The following day the seedlings were inoculated with a spore dust of Blumeria graminis f. sp. tritici (also known as Erysiphe graminis f. sp. tritici, the causal agent of wheat powdery mildew) and incubated in a growth chamber at 20° C. for 8 days, after which time visual disease ratings were made. Results for Tests A-I are given in Table A. In the Table, a rating of 100 indicates 100% disease control and a rating of 0 indicates no disease control (relative to the controls). A hyphen (-) indicates no test results.

The test system of assay [2] is Puccinia recondita f. sp. tritici. As to the kind of experiment: Test H: preventive spray on wheat seedlings, wheat leaf rust, visual disease rating. To be noted: 200 ppm test suspension. The method, then: General protocol for preparing test suspensions for Tests A-I: the test compounds were first dissolved in acetone in an amount equal to 3% of the final volume and then suspended at the desired concentration (in ppm) in acetone and purified water (50/50 mix by volume) containing 250 ppm of the surfactant Trem® 014 (polyhydric alcohol esters). The resulting test suspensions were then used in Tests A-I. Each test was conducted in triplicate, and the results were averaged. Spraying a 200 ppm test suspension to the point of run-off on the test plants was the equivalent of a rate of about 800 g/ha. Unless otherwise indicated, the rating values indicate a 200 ppm test suspension was used. (An asterisk “*” next to the rating value indicates a 40 ppm test suspension was used.) The test suspension was sprayed to the point of run-off on wheat seedlings. The following day the seedlings were inoculated with a spore suspension of Puccinia recondita f. sp. tritici (the causal agent of wheat leaf rust) and incubated in a saturated atmosphere at 20° C. for 24 h, and then moved to a growth chamber at 20° C. for 6 days, after which time visual disease ratings were made. Results for Tests A-I are given in Table A. In the Table, a rating of 100 indicates 100% disease control and a rating of 0 indicates no disease control (relative to the controls). A hyphen (-) indicates no test results.

In the next assay the test system is Septoria nodorum. The assay can be described thus: Test E: preventive spray on wheat seedlings, Septoria glume blotch, visual disease rating. The note with it: 200 ppm test suspension, preventive spray. How it is done: General protocol for preparing test suspensions for Tests A-I: the test compounds were first dissolved in acetone in an amount equal to 3% of the final volume and then suspended at the desired concentration (in ppm) in acetone and purified water (50/50 mix by volume) containing 250 ppm of the surfactant Trem® 014 (polyhydric alcohol esters). The resulting test suspensions were then used in Tests A-I. Each test was conducted in triplicate, and the results were averaged. Spraying a 200 ppm test suspension to the point of run-off on the test plants was the equivalent of a rate of about 800 g/ha. Unless otherwise indicated, the rating values indicate a 200 ppm test suspension was used. (An asterisk “*” next to the rating value indicates a 40 ppm test suspension was used.) The test suspension was sprayed to the point of run-off on wheat seedlings. The following day the seedlings were inoculated with a spore suspension of Septoria nodorum (the causal agent of Septoria glume blotch) and incubated in a saturated atmosphere at 24° C. for 48 h, and then moved to a growth chamber at 20° C. for 9 days, after which time visual disease ratings were made. Results for Tests A-I are given in Table A. In the Table, a rating of 100 indicates 100% disease control and a rating of 0 indicates no disease control (relative to the controls). A hyphen (-) indicates no test results.

The test system of a further assay is Botrytis cinerea. The assay can be described thus: Test A: preventive spray on tomato seedlings, tomato Botrytis, visual disease rating. The note with it: 200 ppm test suspension. The method, then: General protocol for preparing test suspensions for Tests A-I: the test compounds were first dissolved in acetone in an amount equal to 3% of the final volume and then suspended at the desired concentration (in ppm) in acetone and purified water (50/50 mix by volume) containing 250 ppm of the surfactant Trem® 014 (polyhydric alcohol esters). The resulting test suspensions were then used in Tests A-I. Each test was conducted in triplicate, and the results were averaged. Spraying a 200 ppm test suspension to the point of run-off on the test plants was the equivalent of a rate of about 800 g/ha. Unless otherwise indicated, the rating values indicate a 200 ppm test suspension was used. (An asterisk “*” next to the rating value indicates a 40 ppm test suspension was used.) The test suspension was sprayed to the point of run-off on tomato seedlings. The following day the seedlings were inoculated with a spore suspension of Botrytis cinerea (the causal agent of tomato Botrytis) and incubated in saturated atmosphere at 20° C. for 48 h, and then moved to a growth chamber at 24° C. for 3 additional days, after which time visual disease ratings were made. Results for Tests A-I are given in Table A. In the Table, a rating of 100 indicates 100% disease control and a rating of 0 indicates no disease control (relative to the controls). A hyphen (-) indicates no test results.

For `Cc1nn(C)c(Nc2ccccc2F)c1-c1ccc(F)cc1Cl` [Compound 1, 4-(2-chloro-4-fluorophenyl)-N-(2-fluorophenyl)-1,3-dimethyl-1H-pyrazol-5-amine], the “Test B rating (% disease control)” value with Alternaria solani came out at 93%. Besides, the values for the pest or weed control at 200 ppm (in assay [1]; in assay [2]; with Botrytis cinerea) were 100%, 99% and 99%, respectively. Besides, the “Test E rating (% disease control)” value in the assay with Septoria nodorum was 0%.

With `Cc1nn(C)c(Nc2c(F)cccc2F)c1-c1ccc(F)cc1Cl` [Compound 2, 4-(2-chloro-4-fluorophenyl)-N-(2,6-difluorophenyl)-1,3-dimethyl-1H-pyrazol-5-amine], the “Test B rating (% disease control)” value in the assay with Alternaria solani came out at 100%. The values for the pest or weed control at 200 ppm (in assay [1]; in assay [2]; in the assay with Botrytis cinerea) were 100%, 99% and 100%, respectively. In addition, the “Test E rating (% disease control)” value in the assay with Septoria nodorum is 87%.

For the compound `Cc1nn(C)c(Nc2c(F)cccc2Cl)c1-c1ccc(F)cc1Cl` [Compound 3, 4-(2-chloro-4-fluorophenyl)-N-(2-chloro-6-fluorophenyl)-1,3-dimethyl-1H-pyrazol-5-amine], in the assay on Alternaria solani, the “Test B rating (% disease control)” value is 100%. Also, the pest or weed control at 200 ppm in assay [1] was found to be 99%; in assay [2], 100%; in the assay with Botrytis cinerea, 100%. Besides, the “Test E rating (% disease control)” value in the assay on Septoria nodorum was 99%.

These data come from patent publication US10015966B2, “Fungicidal pyrazole mixtures” (E I DU PONT DE NEMOURS AND COMPANY, priority 2012, dated 2018).
